Assay results from US11879848B2, “Graphene-based multi-modal sensors” (The Regents of the University of California, priority 2015, dated 2024).

System: neonatal rat cardiomyocytes (CM)
Experiment: cardiomyocyte contractions registered by PMMA/AuNI/graphene strain sensor in electrophysiological chamber
Assay type: cell-based
Conditions: 10 μM blebbistatin in the solution around the cells; CM culture on PMMA/AuNI/graphene; room temperature
Procedure: The graphene/metal nanoisland composite film structures can also be deployed in biological settings. For example, the performance of graphene/AuNI sensors in biological settings is tested by culturing neonatal rat cardiomyocytes (CM) on coverslips that are coated with a composite polymethylmethacrylate (PMMA)/AuNI/graphene film structure.
Using a specialized chamber shown in FIG. 4c and detailed below, reversible changes in the sensor signal that correlated with the spontaneous activity of cardiomyocytes can be detected, as shown in FIG. 4d.
An excitation-contraction uncoupler such as blebbistatin, that inhibits myosin cycling and stops the contractions of the cells, but not the electrical activity, can be used to distinguish whether the signal detected by the strain sensor was related to the contractile or electrical activity of the cells.
Electrophysiology. Neonatal rat ventricular cardiomyocytes were isolated using the neonatal rat cardiomyocyte isolation kit (Worthington) and cultured at 37° C. with 5% CO2. In brief, ventricles were dissected from 1 d-old Hsd:SD rats (Sprague Dawley), then digested overnight at 4° C. with trypsin. Digestion continued the following morning with collagenase for approximately 60 min at 37° C. […]

Cc1ccc2c(c1)C(=O)C1(O)CCN(c3ccccc3)C1=N2 (stereo not shown) [blebbistatin]
modulations of the sensor signal (contractions of the cells): No noticeable modulations of the signal
